Assay results from US6313092A, “Method for increasing the electrotransport flux of polypeptides” (ALZA Corporation, priority 1998, dated 2001).
Where a SMILES comes first, the peptide text is derived from it. The star is where a group is joined. hSer(lactone) = O=C1OCC[C@@H]1N*

What was measured:
PTH receptor = biological target: T1, PTH receptor (Rattus norvegicus, UniProt P25961); experiment: PTH analog activity assay: stimulation of adenylate cyclase (cAMP by SPA) in UMR106 cells
T1 sequence (P25961 27-591): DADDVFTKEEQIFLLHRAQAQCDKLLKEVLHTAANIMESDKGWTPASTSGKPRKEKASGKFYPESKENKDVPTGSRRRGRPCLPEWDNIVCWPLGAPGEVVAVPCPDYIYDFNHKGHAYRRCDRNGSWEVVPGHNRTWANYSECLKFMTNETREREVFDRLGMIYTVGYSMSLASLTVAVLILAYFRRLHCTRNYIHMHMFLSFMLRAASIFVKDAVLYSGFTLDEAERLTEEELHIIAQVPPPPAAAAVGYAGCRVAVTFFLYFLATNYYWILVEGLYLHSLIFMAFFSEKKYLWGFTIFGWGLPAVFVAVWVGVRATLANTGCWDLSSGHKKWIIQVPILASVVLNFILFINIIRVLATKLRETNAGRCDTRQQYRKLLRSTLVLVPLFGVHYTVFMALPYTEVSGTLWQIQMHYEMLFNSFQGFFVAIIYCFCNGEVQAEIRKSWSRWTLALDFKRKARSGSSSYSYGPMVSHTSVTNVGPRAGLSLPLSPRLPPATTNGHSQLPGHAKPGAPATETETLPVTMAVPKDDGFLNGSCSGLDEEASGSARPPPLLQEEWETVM
Procedure: PTH concentrations were determined by OD280 using an extinction coefficient of 6600 for the recombinant peptide and 5500 for the synthetic peptide. The rat osteosarcoma cell line UMR106 (ATCC CRL 1661) was used for in vitro testing of the peptide's ability to activate the PTH receptor. Activation of the PTH receptor leads to an intracellular rise in cAMP concentration.
The UMR106 cells were seeded at about 2.5×10^5 per well in a 48 well dish and allowed to grow to confluence. Assays were performed on cells 3-5 days postconfluence. The media (Dulbecco's modified Eagle's medium, DMEM, with fetal calf serum) was removed, and 1 mL of fresh media was applied. PTH (recombinant or synthetic) at various concentrations and 3-isobutyl-l-methyl xanthine (IBMX) at 1 mM final concentration were then added to each well of the plate, which was then incubated for 5 minutes at room temperature. The media was then removed and the cells quickly washed with ice cold PBS. The cells were then extracted twice with 1 mL of absolute ethanol. The two extractions were combined and the ethanol removed by evaporation. The extract was then redissolved in 1 mL of scintillation proximity buffer (SPA buffer) (Amersham, Arlington Heights, Ill.). The cAMP concentration was determined by assay using a scintillation proximity assay (SPA) kit available from Amersham.

[1] = In vitro electrotransport flux of the PTH analogs; format: in vitro ADME, human; conditions: retro-inverso versions, 1 mM donor pH 5.0, 100 μA cm^-2, 32° C.
Procedure: In vitro electrotransport studies were carried out in multi-compartment, custom-built, small volume cells using anodic drive. 1 mM PTH in 10 mM buffer was placed in the donor compartment and 25 mM final ionic strength receptor was placed in the receptor compartment. The receptor solution was 15 mM NaCl buffered to pH 7 with 10 mM imidazole, 0.1% bovine serum albumin (BSA) as a blocking agent, Tween 20 detergent and sodium azide as a bactericide.
Heat-stripped human cadaver stratum corneum was placed between the donor and receptor compartments with the epidermis side toward the receptor compartment. A constant DC current of […] (ie,0.1 mA/cm^2) was applied. Cells were maintained at 32° C. during the in vitro studies with receptor samples taken every 2 hours (receptor volume removed and replaced with "fresh" receptor at each sampling). Receptor samples were analyzed by reversed-phase HPLC.
Peak areas of PTH receptor samples were compared to standard curves of the same analog of known concentrations run at the same time using an analytical polymeric column, at a flow rate of 1.5 mL/min with a gradient from 10-50% B in ten minutes for elution. Buffer A was 0.1% trifluroacetic acid (TFA), 1% acetonitrile; Buffer B was 0.1% TFA, 98.9% acetonitrile. Analog concentrations were converted to mass flux and plotted vs. time.
For the in vitro electrotransport studies, described donors contained the retro-inverso versions (ie, D-amino acid residues were used and were assembled in reverse order than usual) of the PTH analogs (1 mM) in aqueous solutions at pH 5.0. This was because PTH analogs 1 and 2 were not stable when incubated with stripped stratum corneum, probably due to proteolytic digestion by skin proteases. The fully assembled electrotransport cells were incubated at 32±0.5° C. The skin contact area available for transport was 1.27 cm^2. The donor compartment volume was 200 μL; the receptor compartment volume was 350 μL. The receptor solution was separated from the cathode by an anion exchange membrane (Ionac™, Eletrosynthesis Co., Lancaster, N.Y.). Each cell was connected to a constant current source at a standard current density of 100 μA cm^-2. The voltage drop across each cell was monitored at approximately 2-hour intervals for the duration of the experiment.

[2] = Stability on incubation with stripped stratum corneum; format: in vitro ADME, human

Structure (SMILES) | EC50 (PTH receptor) [nM] | Average mass flux [1] [μg cm^-2 h^-1] | median mass flux [1] [μg cm^-2 h^-1] | stability when incubated with stripped stratum corneum [2]
CC[C@H](C)[C@H](NC(=O)[C@H](CCC(=O)O)NC(=O)[C@H](CO)NC(=O)[C@@H](NC(=O)[C@@H](N)CO)C(C)C)C(=O)N[C@@H](CCC(N)=O)C(=O)N[C@@H](CC(C)C)C(=O)N[C@@H](CC(C)C)C(=O)N[C@@H](Cc1c[nH]cn1)C(=O)N[C@@H](CC(N)=O)C(=O)N[C@@H](CC(C)C)C(=O)NCC(=O)N[C@@H](CCCCN)C(=O)N[C@@H](Cc1c[nH]cn1)C(=O)N[C@@H](CCCNC(=N)N)C(=O)N[C@@H](CC(N)=O)C(=O)N[C@@H](CO)C(=O)N[C@@H](CC(C)C)C(=O)N[C@@H](CCCNC(=N)N)C(=O)N[C@@H](CCCNC(=N)N)C(=O)N[C@H](C(=O)N[C@@H](CCCNC(=N)N)C(=O)N[C@@H](Cc1c[nH]c2ccccc12)C(=O)N[C@@H](CC(C)C)C(=O)N[C@@H](CCCNC(=N)N)C(=O)N[C@@H](CCCCN)C(=O)N[C@@H](CCCCN)C(=O)N[C@@H](CC(C)C)C(=O)N[C@@H](CCCCN)C(=O)N[C@@H](CC(=O)O)C(=O)N[C@H](C(=O)N[C@@H](Cc1c[nH]cn1)C(=O)N[C@@H](CC(N)=O)C(=O)N[C@@H](Cc1ccc(O)cc1)C(=O)N[C@H]1CCOC1=O)C(C)C)C(C)C [PTH analog 1] (H-SVSEIQLLHNLGKHRNSLRRVRWLRKKLKDVHNY-{hSer(lactone)}) | 0.9 | 1.4 | 0.3 | not stable
CC[C@H](C)[C@H](NC(=O)[C@H](CCC(=O)O)NC(=O)[C@H](CO)NC(=O)[C@@H](NC(=O)[C@@H](N)CO)C(C)C)C(=O)N[C@@H](CCC(N)=O)C(=O)N[C@@H](CC(C)C)C(=O)N[C@@H](CC(C)C)C(=O)N[C@@H](Cc1c[nH]cn1)C(=O)N[C@@H](CC(N)=O)C(=O)N[C@@H](CO)C(=O)NCC(=O)N[C@@H](CCCCN)C(=O)N[C@@H](Cc1c[nH]cn1)C(=O)N[C@@H](CCCNC(=N)N)C(=O)N[C@@H](CC(N)=O)C(=O)N[C@@H](CO)C(=O)N[C@@H](CO)C(=O)N[C@@H](CCCNC(=N)N)C(=O)N[C@@H](CCCNC(=N)N)C(=O)N[C@@H](CO)C(=O)N[C@@H](CCCNC(=N)N)C(=O)N[C@@H](Cc1c[nH]c2ccccc12)C(=O)N[C@@H](CO)C(=O)N[C@@H](CCCNC(=N)N)C(=O)N[C@@H](CCCCN)C(=O)N[C@@H](CCCCN)C(=O)N[C@@H](CO)C(=O)N[C@@H](CCCCN)C(=O)N[C@@H](CC(=O)O)C(=O)N[C@H](C(=O)N[C@@H](Cc1c[nH]cn1)C(=O)N[C@@H](CC(N)=O)C(=O)N[C@@H](CO)C(=O)N[C@H]1CCOC1=O)C(C)C [PTH analog 2] (H-SVSEIQLLHNSGKHRNSSRRSRWSRKKSKDVHNS-{hSer(lactone)}) |  | 4.1 | 3.2 | not stable
